In patent publication US20040171489A1, “Synergistic active compound combinations for controlling harmful plants” (priority 1998, published 2004):

Legend:
Oryza sativa (rice) [1] = experiment: Example 21 field trial, 4-leaf stage: crop damage; format: in vivo; conditions: 42 days after application
Description: (§1) The herbicidal efficacy of the active compounds or active compound mixtures was scored visually using the treated plots in comparison to untreated control plots. The damage and development of all above-ground parts of the plants were recorded. Scoring was carried out using a percentage scale (100% effect=all plants killed; 50% effect=50% of the plants and the green parts of the plants killed; 0% effect=no noticeable effect=like control plot. The scores of in each case 4 plots were averaged.
(§2) If the observed activity values already exceed the formal sum of the values for the trials with the individual applications, they also exceed the expected value according to Colby which is calculated using the following formula and which is likewise considered to be an indication of synergism (cf. S. R. Colby; in Weeds 15 (1967) p. 20 to 22):
(§3) Crop plants were grown outdoors on plots under natural outdoor conditions, and seeds or rhizome pieces of typical harmful plants were laid out or the natural weed growth was utilized. Treatment with the compositions according to the invention was carried out after the harmful plants had emerged and the crop plants were, generally, at the 2- to 4-leaf stage; in some cases (as stated), application of individual active compounds or active compound combinations was carried out pre-emergence (cf. Section 1) or post-emergence (cf. Section 2) or as a sequential treatment partly pre-emergence and/or post-emergence. After the application, for example 2, 4, 6 and 8 weeks after the application, the effect of the preparations was scored visually by comparison with untreated controls (cf. scoring in Section 1). In the field trial as well, the compositions according to the invention have synergistic herbicidal activity against a broad spectrum of economically important weed grasses and broad-leaved weeds. […] Moreover, the effects in essential phases of the scoring period were above the expected values according to Colby, also indicating synergism. […]

Galium aparine [2] = experiment: Example 10 pre-emergence application, fall: herbicidal effect; format: in vivo; conditions: 169 days after application
Description: (§4) Seeds or rhizome pieces of monocotyledonous and dicotyledonous weed plants are placed in sandy loam soil in pots and covered with soil. The compositions, formulated in the form of concentrated aqueous solutions, wettable powders or emulsion concentrates, are then applied to the surface of the soil cover as aqueous solution, suspension or emulsion at an application rate of 600 to 800 l of water/ha (converted), in various dosages. After the treatment, the pots are placed in a greenhouse and kept under good growth conditions for the weeds. After the test plants have emerged, the damage to the plants or the negative effects on the emergence is scored visually after a test period of 3 to 4 weeks by comparison with untreated controls. As shown by the test results, the compositions according to the invention have good herbicidal pre-emergence activity against a broad spectrum of weed grasses and broad-leaved weeds.
as §1, §2
(§5) Crop plants were grown outdoors on plots under natural outdoor conditions, and seeds or rhizome pieces of typical harmful plants were laid out or the natural weed growth was utilized. Treatment with the compositions according to the invention was carried out after the harmful plants had emerged and the crop plants were, generally, at the 2- to 4-leaf stage; in some cases (as stated), application of individual active compounds or active compound combinations was carried out pre-emergence (cf. Section 1) or post-emergence (cf. Section 2) or as a sequential treatment partly pre-emergence and/or post-emergence. After the application, for example 2, 4, 6 and 8 weeks after the application, the effect of the preparations was scored visually by comparison with untreated controls (cf. scoring in Section 1). In the field trial as well, the compositions according to the invention have synergistic herbicidal activity against a broad spectrum of economically important weed grasses and broad-leaved weeds. […] Moreover, the effects in essential phases of the scoring period were above the expected values according to Colby, also indicating synergism. In contrast, the crop plants were, as a consequence of the treatments with the herbicidal compositions, damaged only to a small degree, if at all.

winter wheat [3] = experiment: Example 10 pre-emergence application, fall: crop damage; format: in vivo, Triticum aestivum; conditions: 169 days after application
Description: as §4, §1, §2, §5

Pharbitis purpurea = experiment: Example 21 field trial, 4-leaf stage: herbicidal effect; format: in vivo; conditions: 42 days after application
Description: as §1, §2, §3

[4] = system: corn which is glufosinate-ammonium-resistant; experiment: Example 18 field trial, 3-leaf stage: crop damage; format: in vivo, Corn (LL); conditions: 100 g of ai/ha; 31 days after application
Description: The damage and development of all above-ground parts of the plants were recorded.
Crop plants were grown outdoors on plots under natural outdoor conditions, and seeds or rhizome pieces of typical harmful plants were laid out or the natural weed growth was utilized.

Lamium amolexicaule = experiment: Example 15 field trial, 2- to 4-leaf stage: herbicidal effect; format: in vivo; conditions: 28 days after application
Description: as §1, §2, §5

Zea mays (corn) = experiment: Example 19 field trial, 4 to 5-leaf stage: crop damage; format: in vivo; conditions: 100 g of ai/ha; 31 days after application
Description: as §1, §2
(§6) Crop plants were grown outdoors on plots under natural outdoor conditions, and seeds or rhizome pieces of typical harmful plants were laid out or the natural weed growth was utilized. […] After the application, for example 2, 4, 6 and 8 weeks after the application, the effect of the preparations was scored visually by comparison with untreated controls (cf. scoring in Section 1). […]

Elusine indica = experiment: Example 18 field trial, 3-leaf stage: herbicidal effect; format: in vivo; conditions: 100 g of ai/ha; 31 days after application
Description: as §1, §2, §3

summer wheat = experiment: Example 13 field trial, 2- to 4-leaf stage: crop damage; format: in vivo, Triticum aestivum; conditions: 17 days after application
Description: as §1, §2, §5

Oryza sativa (rice) [5] = experiment: Example 22 field trial, 2-leaf stage: crop damage; format: in vivo; conditions: 14 days after application
Description: as §1, §2, §5

Matricaria chamomilla [6] = experiment: Example 14 field trial, 2- to 4-leaf stage: herbicidal effect; format: in vivo; conditions: 28 days after application
Description: as §1, §2, §5

Myosotis arvensis = experiment: Example 16 field trial, post-emergence, 2- to 3-leaf stage: herbicidal effect; format: in vivo; conditions: 50 g of ai/ha; 69 days after application
Description: as §1, §2, §5

Anthemis arvensis = experiment: as above; format: in vivo; conditions: 50 g of ai/ha; 69 days after application
Description: as §1, §2, §5

Matricaria chamomilla [7] = experiment: as above; format: in vivo; conditions: 50 g of ai/ha; 69 days after application
Description: as §1, §2, §5

Viola arvensis = experiment: as above; format: in vivo; conditions: 50 g of ai/ha; 69 days after application
Description: as §1, §2, §5

Lamium ssp. = experiment: as above; format: in vivo; conditions: 50 g of ai/ha; 69 days after application
Description: as §1, §2, §5

Papaver rhoeas = experiment: as above; format: in vivo; conditions: 50 g of ai/ha; 69 days after application
Description: as §1, §2, §5

Galium aparine [8] = experiment: as above; format: in vivo; conditions: 50 g of ai/ha; 69 days after application
Description: as §1, §2, §5

Euphorbia heterophylla = experiment: Example 20 field trial, 3-leaf stage: herbicidal effect; format: in vivo; conditions: 31 days after application
Description: as §1, §2, §5

winter wheat [9] = experiment: Example 12 field trial, 2- to 4-leaf stage: crop damage; format: in vivo, Triticum aestivum; conditions: 42 days after application
Description: as §1, §2, §5

Capsella bursa-pastoris = experiment: Example 11 field trial, 2- to 4-leaf stage: herbicidal effect; format: in vivo; conditions: 28 days after application
Description: as §1, §2, §5

winter barley = experiment: Example 16 field trial, post-emergence, 2- to 3-leaf stage: crop damage; format: in vivo, Hordeum vulgare; conditions: 50 g of ai/ha; 69 days after application
Description: as §1, §2, §6

Sorghum verticilliflorum = experiment: Example 13 field trial, 2- to 4-leaf stage: herbicidal effect; format: in vivo; conditions: 17 days after application
Description: as §1, §2, §5

Setaria viridis = experiment: Example 19 field trial, 4 to 5-leaf stage: herbicidal effect; format: in vivo; conditions: 100 g of ai/ha; 31 days after application
Description: as §1, §2, §6

Echinochloa crus-galli = experiment: as above; format: in vivo; conditions: 100 g of ai/ha; 31 days after application
Description: as §1, §2, §6

SMILES: CC(C)(F)c1nc(N)nc(NC(CCc2ccccc2)C2CCC2)n1 (stereo not shown) [(A1), 4-amino-6-(1-fluoro-1-methylethyl)-2-(3-phenyl-1-cyclobutylpropylamino)-1,3,5-triazine]
- damage, ORYSA (Oryza sativa (rice) [1]; 25 g of ai/ha): 0%
- damage, ORYSA (Oryza sativa (rice) [1]; 50 g of ai/ha): 0%
- damage, ORYSA (Oryza sativa (rice) [1]; 100 g of ai/ha): 0%
- herbicidal effect, GALAP (Galium aparine [2]; 50 g of ai/ha): 45%
- herbicidal effect, GALAP (Galium aparine [2]; 100 g of ai/ha): 45%
- damage, TRZAW (winter wheat [3]; 50 g of ai/ha): 1%
- damage, TRZAW (winter wheat [3]; 100 g of ai/ha): 2%
- herbicidal effect, PHBPU (Pharbitis purpurea; 25 g of ai/ha): 90%
- herbicidal effect, PHBPU (Pharbitis purpurea; 50 g of ai/ha): 95%
- herbicidal effect, PHBPU (Pharbitis purpurea; 100 g of ai/ha): 97%
- damage, Corn (LL) [4]: 0%
- herbicidal effect, LAMAM (Lamium amolexicaule; 25 g of ai/ha): 60%
- herbicidal effect, LAMAM (Lamium amolexicaule; 50 g of ai/ha): 74%
- herbicidal effect, LAMAM (Lamium amolexicaule; 100 g of ai/ha): 80%
- damage, ZEAMA (Zea mays (corn)): 0%
- herbicidal effect, ELEIN (Elusine indica): 0%
- damage, TRZAS (summer wheat; 62.5 g of ai/ha): 5%
- damage, TRZAS (summer wheat; 125 g of ai/ha): 13%
- damage, ORYSA (Oryza sativa (rice) [5]; 25 g of ai/ha): 0%
- damage, ORYSA (Oryza sativa (rice) [5]; 50 g of ai/ha): 10%
- damage, ORYSA (Oryza sativa (rice) [5]; 100 g of ai/ha): 13%
- herbicidal effect, MATCH (Matricaria chamomilla [6]; 25 g of ai/ha): 43%
- herbicidal effect, MATCH (Matricaria chamomilla [6]; 50 g of ai/ha): 58%
- herbicidal effect, MATCH (Matricaria chamomilla [6]; 100 g of ai/ha): 73%
- herbicidal effect (%), MYOAR (Myosotis arvensis): 81%
- herbicidal effect (%), ANTAR (Anthemis arvensis): 0%
- herbicidal effect (%), MATCH (Matricaria chamomilla [7]): 19%
- herbicidal effect (%), VIOAR (Viola arvensis): 90%
- herbicidal effect (%), LAMSS (Lamium ssp.): 53%
- herbicidal effect (%), PAPRH (Papaver rhoeas): 96%
- herbicidal effect (%), GALAP (Galium aparine [8]): 66%
- herbicidal effect, EPHHL (Euphorbia heterophylla; 25 g of ai/ha): 15%
- herbicidal effect, EPHHL (Euphorbia heterophylla; 50 g of ai/ha): 50%
- herbicidal effect, EPHHL (Euphorbia heterophylla; 100 g of ai/ha): 60%
- damage, TRZAW (winter wheat [9]; 12.5 g of ai/ha): 0%
- damage, TRZAW (winter wheat [9]; 25 g of ai/ha): 0%
- damage, TRZAW (winter wheat [9]; 50 g of ai/ha): 0%
- herbicidal effect, CAPPBP (Capsella bursa-pastoris; 25 g of ai/ha): 40%
- herbicidal effect, CAPPBP (Capsella bursa-pastoris; 50 g of ai/ha): 68%
- herbicidal effect, CAPPBP (Capsella bursa-pastoris; 75 g of ai/ha): 73%
- herbicidal effect, CAPPBP (Capsella bursa-pastoris; 100 g of ai/ha): 79%
- herbicidal effect (%), HORVW (crop) (winter barley): 0%
- herbicidal effect, SORVE (Sorghum verticilliflorum; 62.5 g of ai/ha): 35%
- herbicidal effect, SORVE (Sorghum verticilliflorum; 125 g of ai/ha): 50%
- herbicidal effect, SETVI (Setaria viridis): 0%
- herbicidal effect, ECHCG (Echinochloa crus-galli): 0%
